# Measured values taken from patent publication US7575764B2, “Compositions comprising hypsizygus ulmarius extract” (ELC Management LLC, priority 2005, dated 2009).
# Columns and labels:
# [1] = system: LTB4-mediated neutrophil chemotaxis; assay: Inhibition of neutrophil (PMN) chemotaxis toward LTB4, Boyden chamber; type: cell-based, human
# Description: Three test samples, identical to powder samples 1, 2 and 3 in Example 1, were assayed for their ability to inhibit neutrophil chemotaxis toward Leukotriene B4. The assay is designed to assess the ability of a material to inhibit the migration of polymorphonuclear leukocytes (PMN) toward a known chemotactic agent, LTB4. […] The PMN rich fraction was removed and red blood cells (RBC) were lysed with hypotonic saline. The PMN were washed twice with Hank's Balanced Salt Solution (HBSS) and then resuspended in 5.0 ml HBSS with ions supplemented with 0.4% bovine serum albumin (Sigma). The concentration of cells was adjusted to 10×106 PMN/ml. Collected PMNs were greater than 95% pure and 98% viable as assessed by the trypan blue exclusion assay. The assay was performed using the Boyden chamber apparatus with blind well chambers fitted with 5 μm pore size filters (Millipore). The apparatus consists of two vertical chambers separated by a filter that contains pores of a size chosen such that the holes are large enough for the cells to actively crawl through them but not so large that the cells can physically fall through into the lower chamber. […] The chemoattractant used in the present experiment was 0.125 nM LTB4. Following incubation at 37° C. for 90 min., under a humidified atmosphere with 5% CO2, the filters were fixed with propanol and stained with haematoxylin and eosin. The PMN chemotactic response was determined by the distance to the leading front and the number of cells that migrated to the front. The distance to the leading front was determined at 400× magnification by the distance the majority of the cells migrated through the filter. The results were expressed as the average number of cells per high powered field at the leading (migratory) front (PMN/HPF). In this assay, 0.5% caffeine was used as a positive control. A negative control, with no anti-chemotactic agent, was also used. The results, shown in Table 4, are the percent reduction in chemotactic activity compared to the negative control.
# [2] = system: IL-1β mediated adhesion of neutrophils; assay: Inhibition of IL-1β mediated adhesion of neutrophils (PMN) to human dermal microvascular endothelial cells; type: cell-based
# Description: Three samples identical to those in example 4 were tested for their ability to inhibit endothelial adhesion of neutrophils by interfering with the effects of IL-1β. These samples were tested at final concentrations of 0.1% and 1% (w/v). Neutrophil adhesion was inhibited dose dependently with all samples tested. Adhesion of PMN to human dermal microvascular cells is a required step in the recruitment of leukocytes into the site of infection or irritation and was modeled for this assay in the following manner. […] The PMN rich fraction was removed and RBC were lysed with hypotonic saline. The PMN were washed twice with Hank's balanced salt solution (HBSS) and then resuspended in 5.0 ml HBSS with ions supplemented with 0.4% bovine serum albumin (Sigma). The concentration of cells was adjusted to 10×106 PMN/ml. Collected PMNs were greater than 95% pure and 98% viable as assessed by the trypan blue exclusion assay. […] In preliminary experiments the optimum concentrations of stimulatory agents (IL-1β, 10 U/ml and TPA, 5 ng/ml) were determined. […] After 30-45 min, the wells were read in an ELISA reader (Bio-Tek Instruments Inc, Winooslei, Vt., USA) at 570 nm. The level of adherence was given as the mean optical density (OD) reading at an OD570 for wells containing endothelial cells plus PMN minus the mean OD570 of wells containing endothelial cells alone.
smiles,measurement,setting,value
Cn1c(=O)c2c(ncn2C)n(C)c1=O [caffeine],Percent reduction in chemotactic activity compared to the negative control,"[1]; Example 2, 0.5% (w/v), 0.125 nM LTB4",96%
same,Percent reduction in chemotactic activity compared to negative control,"[1]; Example 4, 0.1% (w/v), 0.125 nM LTB4",93%
same,Percent reduction in chemotactic activity compared to negative control,"[1]; Example 6, concentration 0.5%",94%
same,Percent reduction in chemotactic activity compared to negative control,"[1]; Example 7, positive control at 0.5% concentration",97%
same,Percent reduction in adhesion activity compared to negative control,"[2]; Example 5, 1.0% (w/v), IL-1β 10 U/ml",64%
same,Percent reduction in adhesion activity compared to negative control,"[2]; Example 8, positive control at 1.0% concentration",47%
